Drawing on PubChem BioAssay (NCI), this text covers GI50 and TGI for six compounds.

Some test systems named below: HCT-15 colon; OVCAR-8 ovarian; OVCAR-5 ovarian; UO-31 renal; TK-10 renal; SNB-75 CNS; SF-539 CNS; EKVX NSCLC; SNB-19 CNS; KM12 colon.
Assay in all cases: inhibition of tumour cell growth, NCI panel, 48 h

Several values for one entry are separate records, joined by “and”; a condition that tells them apart may be missing. Identical values can stand only once.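 In this assay, cells in 96-well plates receive the compound at five concentrations for 48 hours. Endpoints are linearly interpolated between the surrounding concentrations. GI50 marks 50% less growth. Definition used: TGI = concentration required for complete inhibition of growth.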 Bounds are passed on as bounds.

Consider `O=C(Nc1ccc(Cl)cc1F)c1cc(I)ccc1O`, for which the GI50 was 2.41 µM in the test on HCT-15 colon; 2.02 µM in the test on OVCAR-8 ovarian; 4.21 µM with OVCAR-5 ovarian; 0.385 µM with UO-31 renal; 4.21 µM in the test with TK-10 renal; 0.187 µM in the test on SNB-75 CNS. The GI50 with SF-539 CNS is 1.1 µM; with EKVX NSCLC, 1.62 µM; in the test on SNB-19 CNS, 0.714 µM; with KM12 colon it was 2.15 µM. Besides, the TGI in the test with HCT-15 colon was 10.2 µM; with OVCAR-8 ovarian, 9.96 µM; in the test on OVCAR-5 ovarian, above 100 µM; in the test on UO-31 renal, 3.18 µM; in the test with TK-10 renal, 16.1 µM; with SNB-75 CNS it was 2.82 µM. The TGI in the test on SF-539 CNS is 5.78 µM; with EKVX NSCLC, 8.8 µM; in the test with SNB-19 CNS, 92 µM; in the test with KM12 colon, 4.98 µM.
Turning to `O=C([O][Hg][CH2]C1COC([CH2][Hg][O]C(=O)c2ccccc2)CO1)c1ccccc1` (stereo not drawn), the GI50 was 2.83 µM and 1.63 µM in the test with HCT-15 colon; 10.7 µM and 1.92 µM with OVCAR-8 ovarian; 18 µM with OVCAR-5 ovarian; 17.7 µM in the test with UO-31 renal; 10.5 µM and 1.85 µM in the test on TK-10 renal; 17.6 µM and 4.32 µM with SNB-75 CNS. The GI50 is 15.8 µM and 14.4 µM with SF-539 CNS; 20.7 µM and 19.5 µM with EKVX NSCLC; 19.6 µM and 6.18 µM in the test with SNB-19 CNS; 31.1 µM with KM12 colon. Moreover, the TGI in the test on HCT-15 colon is 5.67 µM and 3.15 µM; in the test with OVCAR-8 ovarian it was 25.4 µM and 4.42 µM; in the test on OVCAR-5 ovarian, 31.9 µM; with UO-31 renal, 31.5 µM; in the test on TK-10 renal it was 19 µM and 3.33 µM; in the test on SNB-75 CNS it was 31.9 µM and 23.4 µM. The TGI in the test with SF-539 CNS is 29.7 µM and 30.5 µM; in the test with EKVX NSCLC, 35.8 µM and 34.9 µM; in the test with SNB-19 CNS, 43.2 µM and 21.9 µM; in the test on KM12 colon it was 46 µM.
Regarding `O=C(CN1CCN(c2ccc(Cl)cc2)CC1)N1CCN(c2nnc(-c3ccc(Cl)cc3)c(-c3ccc(Cl)cc3)n2)CC1`, the GI50 in the test on HCT-15 colon is above 100 µM; in the test on OVCAR-8 ovarian it was above 100 µM; in the test on OVCAR-5 ovarian, above 100 µM; in the test on UO-31 renal it was 20.3 µM; in the test on TK-10 renal, 26.2 µM; with SNB-75 CNS it was 15.1 µM. Besides, the GI50 with SF-539 CNS was 19.6 µM; in the test with EKVX NSCLC it was 21.5 µM; with SNB-19 CNS, 19.1 µM; in the test on KM12 colon it was 9.45 µM. Further, the TGI with HCT-15 colon is above 100 µM; in the test on OVCAR-8 ovarian, above 100 µM; with OVCAR-5 ovarian, above 100 µM; in the test on UO-31 renal it was above 100 µM; with TK-10 renal it was above 100 µM; in the test with SNB-75 CNS, 35.5 µM. For the same compound, the TGI in the test with SF-539 CNS is 69.9 µM; with EKVX NSCLC, above 100 µM; in the test on SNB-19 CNS, 63.5 µM; in the test on KM12 colon, above 100 µM.
`O=C(c1ccco1)c1nc2cc(F)ccc2[n+]([O-])c1C(F)(F)F`: the GI50 is 17.8 µM with HCT-15 colon; 22.5 µM in the test on OVCAR-8 ovarian; 26.7 µM in the test with OVCAR-5 ovarian; 28.1 µM with UO-31 renal; 85.3 µM in the test on TK-10 renal; 24.5 µM with SNB-75 CNS. The GI50 with SF-539 CNS was above 100 µM; with EKVX NSCLC, 18.6 µM; in the test with SNB-19 CNS it was 47.4 µM; in the test with KM12 colon, 57 µM. In addition, the TGI with HCT-15 colon was 39.1 µM; with OVCAR-8 ovarian, 62 µM; in the test on OVCAR-5 ovarian, 90.6 µM; with UO-31 renal it was above 100 µM; with TK-10 renal it was above 100 µM; in the test on SNB-75 CNS it was 86.6 µM. For the same compound, the TGI with SF-539 CNS is above 100 µM; with EKVX NSCLC, 39.9 µM; in the test with SNB-19 CNS, above 100 µM; in the test on KM12 colon, above 100 µM.
As to `C/C(=N\N=C(\[Se])N1CCN(c2ccccn2)CC1)c1ccccn1`, the GI50 with HCT-15 colon was 0.0118 µM; in the test with OVCAR-8 ovarian, 0.000541 µM; in the test with OVCAR-5 ovarian, 0.00643 µM; in the test on UO-31 renal, 0.138 µM; in the test with SF-539 CNS, 0.407 µM; in the test with EKVX NSCLC, 0.0937 µM and 0.559 µM. For the same compound, the values for the GI50 in the test on SNB-19 CNS and in the test on KM12 colon were 0.13 µM and 0.239 µM, respectively. Moreover, the TGI in the test on HCT-15 colon was 17.3 µM; in the test on OVCAR-8 ovarian, 20.6 µM; in the test with OVCAR-5 ovarian it was 21.8 µM; in the test with UO-31 renal, above 40 µM; with TK-10 renal it was 20.6 µM; with SNB-75 CNS, 17.5 µM. The TGI with SF-539 CNS turned out to be 12.2 µM; with EKVX NSCLC, 9.7 µM; with SNB-19 CNS, 18.6 µM; in the test on KM12 colon, 18.5 µM.
With `O=C(Nc1ccc(Oc2ccc3nc(NC(=O)c4ccccc4)[nH]c3c2)cc1)Nc1cc(C(F)(F)F)ccc1F`, the GI50 in the test with HCT-15 colon is 2.07 µM; with OVCAR-8 ovarian it was 0.764 µM; in the test on OVCAR-5 ovarian it was 4.41 µM; with UO-31 renal, 1.31 µM; in the test with TK-10 renal, 2.61 µM; in the test on SNB-75 CNS, 1.3 µM. Besides, the GI50 is 1.81 µM with SF-539 CNS, 0.969 µM in the test on EKVX NSCLC, 5.56 µM in the test with SNB-19 CNS and 0.244 µM in the test on KM12 colon. In addition, the TGI was above 25 µM in the test with HCT-15 colon; 5.08 µM with OVCAR-8 ovarian; above 25 µM in the test on OVCAR-5 ovarian; 15.6 µM in the test on UO-31 renal; 22 µM in the test on TK-10 renal; 10 µM in the test on SNB-75 CNS. The TGI with SF-539 CNS was 18.5 µM; in the test on EKVX NSCLC, above 25 µM; with SNB-19 CNS, above 25 µM; with KM12 colon it was 2 µM.
